Test results from ChEMBL document CHEMBL1146724, “Enzyme cleavable and biotinylated photoaffinity ligand with diazirine” (Bioorg Med Chem Lett, 2004).

Assay: Km was determined

Structure (SMILES) | Km [µM]
CC(=O)CCCC[C@@H]1SCC2NC(=O)NC21 (some centres not stated) | 175
N[C@@H](Cc1ccccc1)C(=O)Nc1ccc([N+](=O)[O-])cc1 | 750
